Laboratory results: patent publication US11331369B2, “Endoparasitic depsipeptides” (Zoetis Services LLC, priority 2017, dated 2022)

Tested on: microfilariae of Dirofilaria immitis
Experiment: Dirofilaria immitis, Microfilaria (DiMF) In vitro Assay
Assay type: cell-based
Conditions: 72 h, read-out: DiMF Minimum Effective Dose (MED), approximately 72 hours incubation, microfilariae assessed for survival or paralysis

SMILES	minimal effective concentration [µM]
CC(C)C[C@H]1C(=O)O[C@H](Cc2ccc(Cn3nc(CO)cc3CO)cc2)C(=O)N(C)[C@@H](CC(C)C)C(=O)O[C@H](C)C(=O)N(C)[C@@H](CC(C)C)C(=O)O[C@H](Cc2ccc(Cn3nc(C#N)cc3C#N)cc2)C(=O)N(C)[C@@H](CC(C)C)C(=O)O[C@H](C)C(=O)N1C [Example 1a-2, 1-(4-(((2R,5S,8R,11S,14R,17S,20R,23S)-14-(4-((3,5-bis(hydroxymethyl)-1H-pyrazol-1-yl)methyl)benzyl)-5,11,17,23-tetraisobutyl-4,8,10,16,20,22-hexamethyl-3,6,9,12,15,18,21,24-octaoxo-1,7,13,19-tetraoxa-4,10,16,22-tetraazacyclotetracosan-2-yl)methyl)benzyl)-1H-pyrazole-3,5-dicarbonitrile]	0.001 to 0.01
CC(C)C[C@H]1C(=O)O[C@H](Cc2ccc(Cn3nccc3N)cc2)C(=O)N(C)[C@@H](CC(C)C)C(=O)O[C@H](C)C(=O)N(C)[C@@H](CC(C)C)C(=O)O[C@H](Cc2ccc(Cn3nccc3N)cc2)C(=O)N(C)[C@@H](CC(C)C)C(=O)O[C@H](C)C(=O)N1C [Example 1b-144, (3S,6R,9S,12R,15S,18R,21S,24R)-6,18-bis(4-((5-amino-1H-pyrazol-1-yl)methyl)benzyl)-3,9,15,21-tetraisobutyl-4,10,12,16,22,24-hexamethyl-1,7,13,19-tetraoxa-4,10,16,22-tetraazacyclotetracosan-2,5,8,11,14,17,20,23-octaone]	0.01 to 0.1
CC(C)C[C@H]1C(=O)O[C@H](Cc2cccc(Cn3cc(O)cn3)c2)C(=O)N(C)[C@@H](CC(C)C)C(=O)O[C@H](C)C(=O)N(C)[C@@H](CC(C)C)C(=O)O[C@H](Cc2ccccc2)C(=O)N(C)[C@@H](CC(C)C)C(=O)O[C@H](C)C(=O)N1C [Example 5-3, (3S,6R,9S,12R,15S,18R,21S,24R)-6-benzyl-18-(3-((4-hydroxy-1H-pyrazol-1-yl)methyl)benzyl)-3,9,15,21-tetraisobutyl-4,10,12,16,22,24-hexamethyl-1,7,13,19-tetraoxa-4,10,16,22-tetraazacyclotetracosan-2,5,8,11,14,17,20,23-octaone]	0.01 to 0.1
CC(C)C[C@H]1C(=O)O[C@H](Cc2ccc(Cn3cc(-c4cnccn4)cn3)cc2)C(=O)N(C)[C@@H](CC(C)C)C(=O)O[C@H](C)C(=O)N(C)[C@@H](CC(C)C)C(=O)O[C@H](Cc2ccc(Cn3cc(-c4cnccn4)cn3)cc2)C(=O)N(C)[C@@H](CC(C)C)C(=O)O[C@H](C)C(=O)N1C [Example 1b-87, (3S,6R,9S,12R,15S,18R,21S,24R)-3,9,15,21-tetraisobutyl-4,6,10,16,18,22-hexamethyl-12,24-bis(4-((4-(pyrazin-2-yl)-1H-pyrazol-1-yl)methyl)benzyl)-1,7,13,19-tetraoxa-4,10,16,22-tetraazacyclotetracosan-2,5,8,11,14,17,20,23-octaone]	0.01 to 0.1
CC(C)C[C@H]1C(=O)O[C@H](Cc2ccc(Cn3ccnc3CF)cc2)C(=O)N(C)[C@@H](CC(C)C)C(=O)O[C@H](C)C(=O)N(C)[C@@H](CC(C)C)C(=O)O[C@H](Cc2ccccc2)C(=O)N(C)[C@@H](CC(C)C)C(=O)O[C@H](C)C(=O)N1C [Example 8-14, (3S,6R,9S,12R,15S,18R,21S,24R)-6-benzyl-18-(4-((2-(fluoromethyl)-1H-imidazol-1-yl)methyl)benzyl)-3,9,15,21-tetraisobutyl-4,10,12,16,22,24-hexamethyl-1,7,13,19-tetraoxa-4,10,16,22-tetraazacyclotetracosan-2,5,8,11,14,17,20,23-octaone]	0.01 to 0.1
CC(=O)Nc1cnn(Cc2ccc(C[C@H]3OC(=O)[C@H](CC(C)C)N(C)C(=O)[C@@H](C)OC(=O)[C@H](CC(C)C)N(C)C(=O)[C@@H](Cc4ccccc4)OC(=O)[C@H](CC(C)C)N(C)C(=O)[C@@H](C)OC(=O)[C@H](CC(C)C)N(C)C3=O)cc2)c1 [Example 2-31, N-(1-(4-(((2R,5S,8R,11S,14R,17S,20R,23S)-14-benzyl-5,11,17,23-tetraisobutyl-4,8,10,16,20,22-hexamethyl-3,6,9,12,15,18,21,24-octaoxo-1,7,13,19-tetraoxa-4,10,16,22-tetraazacyclotetracosan-2-yl)methyl)benzyl)-1H-pyrazol-4-yl)acetamide]	0.01 to 0.1
Cc1nn(Cc2ccc(C[C@H]3OC(=O)[C@H](CC(C)C)N(C)C(=O)[C@@H](C)OC(=O)[C@H](CC(C)C)N(C)C(=O)[C@@H](Cc4ccccc4)OC(=O)[C@H](CC(C)C)N(C)C(=O)[C@@H](C)OC(=O)[C@H](CC(C)C)N(C)C3=O)cc2)c(C)c1C#N [Example 2-78, 1-(4-(((2R,5S,8R,11S,14R,17S,20R,23S)-14-benzyl-5,11,17,23-tetraisobutyl-4,8,10,16,20,22-hexamethyl-3,6,9,12,15,18,21,24-octaoxo-1,7,13,19-tetraoxa-4,10,16,22-tetraazacyclotetracosan-2-yl)methyl)benzyl)-3,5-dimethyl-1H-pyrazole-4-carbonitrile]	0.01 to 0.1
CC(C)C[C@H]1C(=O)O[C@H](Cc2ccc(Cn3nccc3Cl)cc2)C(=O)N(C)[C@@H](CC(C)C)C(=O)O[C@H](C)C(=O)N(C)[C@@H](CC(C)C)C(=O)O[C@H](Cc2ccc(Cn3ccc(Cl)n3)cc2)C(=O)N(C)[C@@H](CC(C)C)C(=O)O[C@H](C)C(=O)N1C [Example 1a-46, (3S,6R,9S,12R,15S,18R,21S,24R)-6-(4-((3-chloro-1H-pyrazol-1-yl)methyl)benzyl)-18-(4-((5-chloro-1H-pyrazol-1-yl)methyl)benzyl)-3,9,15,21-tetraisobutyl-4,10,12,16,22,24-hexamethyl-1,7,13,19-tetraoxa-4,10,16,22-tetraazacyclotetracosan-2,5,8,11,14,17,20,23-octaone]	0.001 to 0.01
Cc1cnn(Cc2ccc(C[C@H]3OC(=O)[C@H](CC(C)C)N(C)C(=O)[C@@H](C)OC(=O)[C@H](CC(C)C)N(C)C(=O)[C@@H](Cc4ccc(Cn5cc(C(F)(F)F)cn5)cc4)OC(=O)[C@H](CC(C)C)N(C)C(=O)[C@@H](C)OC(=O)[C@H](CC(C)C)N(C)C3=O)cc2)c1 [Example 1a-30, (3S,6R,9S,12R,15S,18R,21S,24R)-3,9,15,21-tetraisobutyl-4,6,10,16,18,22-hexamethyl-12-(4-((4-methyl-1H-pyrazol-1-yl)methyl)benzyl)-24-(4-((4-(trifluoromethyl)-1H-pyrazol-1-yl)methyl)benzyl)-1,7,13,19-tetraoxa-4,10,16,22-tetraazacyclotetracosan-2,5,8,11,14,17,20,23-octaone]	0.01 to 0.1
Cc1nn(Cc2ccc(C[C@H]3OC(=O)[C@H](CC(C)C)N(C)C(=O)[C@@H](C)OC(=O)[C@H](CC(C)C)N(C)C(=O)[C@@H](Cc4ccccc4)OC(=O)[C@H](CC(C)C)N(C)C(=O)[C@@H](C)OC(=O)[C@H](CC(C)C)N(C)C3=O)cc2)c(C)c1S(=O)(=O)N1CCCC1 [Example 2-40, (3S,6R,9S,12R,15S,18R,21S,24R)-6-benzyl-18-(4-((3,5-dimethyl-4-(pyrrolidin-1-ylsulfonyl)-1H-pyrazol-1-yl)methyl)benzyl)-3,9,15,21-tetraisobutyl-4,10,12,16,22,24-hexamethyl-1,7,13,19-tetraoxa-4,10,16,22-tetraazacyclotetracosan-2,5,8,11,14,17,20,23-octaone]	0.01 to 0.1
CC(C)C[C@H]1C(=O)O[C@H](Cc2ccc(CN3CCS(=O)(=O)c4ccccc43)cc2)C(=O)N(C)[C@@H](CC(C)C)C(=O)O[C@H](C)C(=O)N(C)[C@@H](CC(C)C)C(=O)O[C@H](Cc2ccc(CN3CCS(=O)(=O)c4ccccc43)cc2)C(=O)N(C)[C@@H](CC(C)C)C(=O)O[C@H](C)C(=O)N1C [Example 10-33, (3S,6R,9S,12R,15S,18R,21S,24R)-6,18-bis(4-((1,1-dioxido-2,3-dihydro-4H-benzo[b][1,4]thiazin-4-yl)methyl)benzyl)-3,9,15,21-tetraisobutyl-4,10,12,16,22,24-hexamethyl-1,7,13,19-tetraoxa-4, 10,16,22-tetraazacyclotetracosan-2,5,8,11,14,17,20,23-octaone]	0.01 to 0.1
CC(C)C[C@H]1C(=O)O[C@H](Cc2ccc(Cn3cc(COc4cccc(C#N)c4)nn3)cc2)C(=O)N(C)[C@@H](CC(C)C)C(=O)O[C@H](C)C(=O)N(C)[C@@H](CC(C)C)C(=O)O[C@H](Cc2ccccc2)C(=O)N(C)[C@@H](CC(C)C)C(=O)O[C@H](C)C(=O)N1C [Example 10-23, 3-((1-(4-(((2R,5S,8R,11S,14R,17S,20R,23S)-14-benzyl-5,11,17,23-tetraisobutyl-4,8,10,16,20,22-hexamethyl-3,6,9,12,15,18,21,24-octaoxo-1,7,13,19-tetraoxa-4,10,16,22-tetraazacyclotetracosan-2-yl)methyl)benzyl)-1H-1,2,3-triazol-4-yl)methoxy)benzonitrile]	0.01 to 0.1
Cc1nn(Cc2ccc(C[C@H]3OC(=O)[C@H](CC(C)C)N(C)C(=O)[C@@H](C)OC(=O)[C@H](CC(C)C)N(C)C(=O)[C@@H](Cc4ccccc4)OC(=O)[C@H](CC(C)C)N(C)C(=O)[C@@H](C)OC(=O)[C@H](CC(C)C)N(C)C3=O)cc2)c(C)c1O [Example 2-44, (3S,6R,9S,12R,15S,18R,21S,24R)-6-benzyl-18-(4-((4-hydroxy-3,5-dimethyl-1H-pyrazol-1-yl)methyl)benzyl)-3,9,15,21-tetraisobutyl-4,10,12,16,22,24-hexamethyl-1,7,13,19-tetraoxa-4,10,16,22-tetraazacyclotetracosan-2,5,8,11,14,17,20,23-octaone]	0.001 to 0.01
CC(C)C[C@H]1C(=O)O[C@H](Cc2ccc(CN3CCOc4ccccc43)cc2)C(=O)N(C)[C@@H](CC(C)C)C(=O)O[C@H](C)C(=O)N(C)[C@@H](CC(C)C)C(=O)O[C@H](Cc2ccccc2)C(=O)N(C)[C@@H](CC(C)C)C(=O)O[C@H](C)C(=O)N1C [Example 10-16, (3S,6R,9S,12R,15S,18R,21S,24R)-6-benzyl-18-(4-((2,3-dihydro-4H-benzo[b][1,4]oxazin-4-yl)methyl)benzyl)-3,9,15,21-tetraisobutyl-4,10,12,16,22,24-hexamethyl-1,7,13,19-tetraoxa-4,10,16,22-tetraazacyclotetracosan-2,5,8,11,14,17,20,23-octaone]	0.01 to 0.1
